{"source": "patent US11534377B2", "about": "“Hair growth agent” (KOBAYASHI PHARMACEUTICAL CO., LTD., priority 2016, dated 2022)", "key": {"[1]": {"tested_on": "transplanted mice (hair follicles of haired mice transplanted into the back of nude mice)", "assay": "Hair shaft growth in nude mice transplanted with hair follicles of haired mice (Example 1)", "type": "in vivo", "conditions": "for Hair shaft growth rate: topical 4 times per day", "method": "Hair follicles (surgically prepared) of haired mice were transplanted into the back of nude mice (from Sankyo Labo Service Corporation, Inc.) to produce transplanted mice manipulated such that each hair can be distinguished and a plurality of hair cycles can be observed. First, a 50% ethanol aqueous solution (12.5 μl, not containing the agent) was applied to the transplanted mice 4 times per day during new hair growth in the first hair cycle to obtain reference data of a hair cycle. After the hair had shed following the end of the first hair cycle, a 50% ethanol aqueous solution (12.5 μl) containing a predetermined amount of the agent was applied to the mice 4 times per day to obtain data on effects of the agent. After the hair had shed following the end of the second hair cycle, a 50% ethanol aqueous solution (12.5 μl) containing the agent in the same amount as that in the second hair cycle was applied to the mice in a similar manner to the second hair cycle to obtain reproducibility data on effects of the agent. As the agent, D-chiro-inositol (from Wako Pure Chemical Industries Ltd.) and its stereoisomers as chiro-inositol, L-chiro-inositol (from Tokyo Chemical Industry Co., Ltd.), myo-inositol (from Wako Pure Chemical Industries Ltd.), allo-inositol (cis-1,2,3,4-trans-5,6-cyclohexaneheaxol) (from Tokyo Chemical Industry Co., Ltd.), epi-inositol (cis-1,2,3,4,5-trans-6-cyclohexanehexaol) (from Tokyo Chemical Industry Co., Ltd.), muco-inositol (cis-1,2,4,5-trans-3,6-cyclohexanehexaol) (from Tokyo Chemical Industry Co., Ltd.), and scyllo-inositol (cis-1,3,5-trans-2,4,6-cyclohexanehexaol) (from Tokyo Chemical Industry Co., Ltd.) were used. For each agent solution, the lengths of hair shafts were measured every 2 to 3 days, an average length of hair shafts that changed day by day was plotted as one dot at each time point in a graph, and a similar plotting was repeated for 3 to 4 mice. The results were shown in Tables 1 to 14 and FIGS. 1 to 14."}, "[2]": {"tested_on": "crab-eating macaque (Macaca fascicularis)", "assay": "New hair growth test in monkey (Example 4)", "type": "in vivo", "conditions": "1 wt % in 50% ethanol, 8 weeks", "from_the_text": "A crab-eating macaque (Macaca fascicularis) is a monkey (class: Mammalia, order: Primates, family: Cercopithecidae, genus: Macaca) that has many similarities to humans, such as the morphology of the temporomandibular joint, and is frequently employed as a laboratory animal for morphological studies and medication studies due to its easy breeding and rearing. The crab-eating macaque is known for the replacement of the body hair in a six-month cycle in a year. Among aged female monkeys that had babies repeatedly and aged male monkeys of low social status, individuals with observed symptoms of hair thinning or sparse hair emerge with low frequency. […] In this Example, to an aged crab-eating macaque (19 years of age, male) having sparse body hair of the head, a test solution A in which D-chiro-inositol (from Wako Pure Chemical Industries Ltd.) was dissolved in 50% ethanol at a concentration of 1 wt % and a test solution B in which myo-inositol was dissolved in 50% ethanol at a concentration of 1 wt % were applied every day to about 4 cm^2-sparse hair regions (2 cm×2 cm) in both left and right sides across the median line of the head of the macaque. The application (once/day, 150 μl) was performed over 8 weeks, and 50% ethanol was applied as a negative control. At the end of 8 weeks, hair shafts in the applied regions were cut with hair clippers while leaving 2 to 3 mm from pores toward the outside of the body, and the total number of hair protruded from the pores in the applied regions was counted. A new hair growth rate was calculated as an increase rate in the number of hair at the end of 8 weeks, relative to the number of hair protruded from pores in the same regions before the application at the start of the test as 100%."}, "[3]": {"tested_on": "hair papilla cells", "assay": "Hair papilla cell proliferation test by two-dimensional culture (Example 5)", "type": "cell-based, C57BL/6N mouse", "conditions": "final concentration 0.1 wt %, cultured for 3 days; FIG. 18", "from_the_text": "Hair papilla cells transmit new hair growth signals to hair matrix cells via signaling substances to activate hair matrix cells, thereby controlling processes of new hair growth and hair elongation. Accordingly, the hair shaft growth promoting activity and the like of test substances can be evaluated from a proliferation rate of hair papilla cells. In this Example, the skin of the whisker region was taken from a C57BL/6N mouse and hair papillae were harvested from isolated whisker follicles under a stereo microscope. Six hair papillae were fixed to the bottom surface of a 60 mm-plastic petri dish (from Sumitomo Bakelite Co., Ltd.), and the primary culture was performed at 37° C. in the presence of 5% CO2 by using a hair papilla cell culture medium in which 2% FCS (fetal calf serum), 0.6% ITT (insulin-transferrin-triiodothyronine mixture), 1% BPE (bovine pituitary extract), and 0.6% Cyp (cyproterone solution) were added to a PCGM base medium. Afterwards, the medium was replaced every 2 to 3 days and subculturing was repeated about every two weeks. In this experiment, hair papilla cells at passage 3 or less were used. […] The number of cells after culturing for 3 days was counted by using a hemocytometer, and proliferation rates in test solution A and the test solution B were calculated relative to 100% for a proliferation rate in the negative control as 100%."}, "[4]": {"conditions": "1 wt %, second hair cycle vs first hair cycle (vehicle)"}, "[5]": {"conditions": "1 wt %, third hair cycle vs first hair cycle (vehicle)"}, "[6]": {"conditions": "5 wt %, second hair cycle vs first hair cycle (vehicle)"}, "[7]": {"conditions": "5 wt %, third hair cycle vs first hair cycle (vehicle)"}, "[8]": {"conditions": "10 wt %, second hair cycle vs first hair cycle (vehicle)"}, "[9]": {"conditions": "10 wt %, third hair cycle vs first hair cycle (vehicle)"}}, "data": [{"smiles": "OC1C(O)C(O)C(O)C(O)C1O", "note": "[D-chiro-inositol]", "values": [{"measurement": "Hair shaft growth rate and hair shaft maximum length, difference from the reference data", "setting": "[1]; 0.01 wt %", "result": "marginally significant differences"}, {"measurement": "Hair shaft growth rate", "setting": "[1]; 0.01 wt % in 50% ethanol, second hair cycle", "result": "0.30 ± 0.03", "unit": "mm/day"}, {"measurement": "Hair shaft growth rate", "setting": "[1]; 0.01 wt % in 50% ethanol, third hair cycle (reproducibility)", "result": "0.40 ± 0.06", "unit": "mm/day"}, {"measurement": "Hair shaft maximum length", "setting": "[1]; 0.01 wt %, second hair cycle", "result": "4.8 ± 0.4", "unit": "mm"}, {"measurement": "Hair shaft maximum length", "setting": "[1]; 0.01 wt %, third hair cycle (reproducibility)", "result": "4.7 ± 0.3", "unit": "mm"}, {"measurement": "Hair shaft growth rate", "setting": "[1]; 0.1 wt % in 50% ethanol, second hair cycle", "result": "0.30 ± 0.03", "unit": "mm/day"}, {"measurement": "Hair shaft growth rate", "setting": "[1]; 0.1 wt % in 50% ethanol, third hair cycle (reproducibility)", "result": "0.40 ± 0.06", "unit": "mm/day"}, {"measurement": "Hair growth activity", "setting": "[1]; 0.1 wt %, growth rate not significantly different, maximum length increased significantly in third hair cycle", "result": "hair growth activity was shown"}, {"measurement": "Hair shaft maximum length", "setting": "[1]; 0.1 wt %, second hair cycle", "result": "4.7 ± 0.4", "unit": "mm"}, {"measurement": "Hair shaft maximum length relative to reference data", "setting": "[1]; 0.1 wt %, second hair cycle vs first hair cycle (vehicle)", "result": 101, "unit": "%"}, {"measurement": "Hair shaft maximum length", "setting": "[1]; 0.1 wt %, third hair cycle (reproducibility)", "result": "4.8 ± 0.4", "unit": "mm"}, {"measurement": "Hair shaft maximum length relative to reference data", "setting": "[1]; 0.1 wt %, third hair cycle vs first hair cycle (vehicle)", "result": 105, "unit": "%"}, {"measurement": "Hair shaft growth rate", "setting": "[1]; 1 wt % in 50% ethanol, second hair cycle", "result": "0.47 ± 0.01", "unit": "mm/day"}, {"measurement": "Hair shaft growth rate", "setting": "[1]; 1 wt % in 50% ethanol, third hair cycle (reproducibility)", "result": "0.48 ± 0.04", "unit": "mm/day"}, {"measurement": "Hair shaft maximum length", "setting": "[1]; 1 wt %, second hair cycle", "result": "5.7 ± 0.4", "unit": "mm"}, {"measurement": "Hair shaft growth rate relative to reference data", "setting": "[1]; [4]", "result": 121, "unit": "%"}, {"measurement": "Hair shaft maximum length relative to reference data", "setting": "[1]; [4]", "result": 110, "unit": "%"}, {"measurement": "Hair shaft maximum length", "setting": "[1]; 1 wt %, third hair cycle (reproducibility)", "result": "6.0 ± 0.4", "unit": "mm"}, {"measurement": "Hair shaft growth rate relative to reference data", "setting": "[1]; [5]", "result": 123, "unit": "%"}, {"measurement": "Hair shaft maximum length relative to reference data", "setting": "[1]; [5]", "result": 116, "unit": "%"}, {"measurement": "Hair shaft growth rate", "setting": "[1]; 5 wt % in 50% ethanol, second hair cycle", "result": "0.46 ± 0.04", "unit": "mm/day"}, {"measurement": "Hair shaft growth rate", "setting": "[1]; 5 wt % in 50% ethanol, third hair cycle (reproducibility)", "result": "0.49 ± 0.07", "unit": "mm/day"}, {"measurement": "Hair shaft maximum length", "setting": "[1]; 5 wt %, second hair cycle", "result": "5.1 ± 0.3", "unit": "mm"}, {"measurement": "Hair shaft growth rate relative to reference data", "setting": "[1]; [6]", "result": 128, "unit": "%"}, {"measurement": "Hair shaft maximum length relative to reference data", "setting": "[1]; [6]", "result": 116, "unit": "%"}, {"measurement": "Hair shaft maximum length", "setting": "[1]; 5 wt %, third hair cycle (reproducibility)", "result": "5.1 ± 0.4", "unit": "mm"}, {"measurement": "Hair shaft growth rate relative to reference data", "setting": "[1]; [7]", "result": 136, "unit": "%"}, {"measurement": "Hair shaft maximum length relative to reference data", "setting": "[1]; [7]", "result": 116, "unit": "%"}, {"measurement": "Hair shaft growth rate", "setting": "[1]; 10 wt % in 50% ethanol, second hair cycle", "result": "0.46 ± 0.06", "unit": "mm/day"}, {"measurement": "Hair shaft growth rate", "setting": "[1]; 10 wt % in 50% ethanol, third hair cycle (reproducibility)", "result": "0.63 ± 0.05", "unit": "mm/day"}, {"measurement": "Hair shaft growth rate and hair shaft maximum length relative to the reference data", "setting": "[1]; 10 wt %, 5 wt %, or 1 wt % as the agent", "result": "increased significantly"}, {"measurement": "Hair shaft maximum length", "setting": "[1]; 10 wt %, second hair cycle", "result": "5.6 ± 0.5", "unit": "mm"}, {"measurement": "Hair shaft growth rate relative to reference data", "setting": "[1]; [8]", "result": 154, "unit": "%"}, {"measurement": "Hair shaft maximum length relative to reference data", "setting": "[1]; [8]", "result": 142, "unit": "%"}, {"measurement": "Hair shaft maximum length", "setting": "[1]; 10 wt %, third hair cycle (reproducibility)", "result": "5.9 ± 0.5", "unit": "mm"}, {"measurement": "Hair shaft growth rate relative to reference data", "setting": "[1]; [9]", "result": 210, "unit": "%"}, {"measurement": "Hair shaft maximum length relative to reference data", "setting": "[1]; [9]", "result": 149, "unit": "%"}, {"measurement": "Hair shaft thickness in applied region vs test solution B and negative control", "setting": "[2]; data not shown", "result": "remarkably thicker"}, {"measurement": "New hair growth rate", "setting": "[2]; once/day 150 μl, sparse hair region of head, number of hair before application = 100%", "result": 175.9, "unit": "%"}, {"measurement": "Hair papilla cell proliferation rate vs negative control", "setting": "[3]", "result": "increased significantly"}]}]}
